We go through 2 compounds from US6903128B2, “Non-peptidyl inhibitors of VLA-4 dependent cell binding useful in treating inflammatory, autoimmune, and respiratory diseases” (Pfizer Inc, priority 1999, dated 2005).

The melting point is the temperature of the solid-liquid transition. `COc1cc(CC(=O)NC(CC(C)C)c2cc(CC(NC(=O)c3c(Cl)cccc3Cl)C(=O)O)on2)ccc1NC(=O)Nc1ccccc1C` (centres unmarked) [Example 25, 2-(2,6-Dichloro-benzoylamino)-3-[3-(1-{2-[3-methoxy-4-(3-o-tolyl-ureido)-phenyl]-acetylamino}-3-methyl-butyl)-isoxazol-5-yl]-propionic acid] came in with a melting point of 102 to 104 °C.

Compound `COc1cc(CC(=O)NC(CC(C)C)c2cc(CC(NC(C)=O)C(=O)O)on2)ccc1NC(=O)Nc1ccccc1C` (centres unmarked) [Example 27, 2-acetylamino-3-[3-(1-{2-[3-methoxy-4-(3-o-tolyl-ureido)-phenyl]-acetylamino}-3-methyl-butyl)-isoxazol-5-yl]-propionic acid] had a melting point of 123 to 125 °C.
